The values below come from patent publication US20030186967A1, “Acylresorcinol derivatives are selective vitronectin receptor inhibitors” (American Home Products Corporation, priority 1998, published 2003).

Structures can show the parent of a compound that is named as a salt. Where two headings read alike, the source gives them in different places. Ends that are not written are not given here.

Series [1] concerns osteoclasts. Briefly: Osteoclast Pitting Assay. The format is cell-based, rat. The protocol: The assay is conducted as described in Murrills and Dempster (1990). Briefly, 4×4×0.2 mm slices of devitalized bovine cortical bone are numbered, placed in the wells of 96-well culture plates and wetted with 100 ul of Medium 199 containing Hanks salts, 10 mM HEPES, pH 7.0 (Medium 199/Hanks). Bone cell suspensions containing osteoclasts are prepared by mincing the long bones of neonatal rats (Sprague-Dawley, 4-6 days old) in Medium 199/Hanks. 100 uL of the suspension is then plated onto each slice and incubated 30 minutes to allow osteoclasts to adhere. The slices are rinsed to remove non-adherent cells and incubated 24 h in Medium 199 containing Earle's salts, 10 mM HEPES and 0.7 g/L NaHCO3, which equilibrates at pH 6.9 in a 5% CO2 atmosphere. At this pH the adherent osteoclasts excavate an adequate number of resorption pits for assay purposes. Slices are fixed in 2.5% glutaraldehyde and osteoclasts counted following tartrate-resistant acid phosphatase staining. […] All cells are stripped from the slice by sonication on 0.25M NH4OH and the resorption pits formed by the osteoclasts during the experiment stained with toluidine blue. Resorption pits are quantified by manually counting.
The experiments are conducted according to a block design with osteoclasts from each animal exposed to each treatment. Three replicate slices are used per treatment per animal, such that a total of 96 slices are examined for an experiment involving four animals and eight treatments (including control). Several parameters are recorded on a “per slice” basis: number of pits, number of osteoclasts, number of pits per osteoclast, number of fibroblast-like bone cells. SAS or JMP statistical software is used for statistical analysis. […] IC50s are calculated for active compounds using dose-response curves.
Reference Compound: Rat calcitonin.
Osteoclasts are responsible for the bone loss that occurs in the onset of osteoporosis and anti-resorptive drugs directed against the osteoclast are a requirement for patients losing bone.

Series [2] concerns thyro-parathyroidectomized (TPTX) rats. As to the kind of experiment: PTH-induced hypercalcemia of thyroparathyroidectomized male rats. The format is in vivo, rat. The method, then:
Effects of test compounds on PTH-induced hypercalcemia of thyroparathyroidectomized male rats
Male thyro-parathyroidectomized (TPTX) rats (Charles River) were randomly assigned to groups of 7 rats/group. Following a baseline serum calcium determination an Alzet 1003D minipump (Alza Corporation, Palo Alto, Calif.) loaded with 0.3 mg/ml PTH (Bachem, Philadelphia, Pa.) was implanted subcutaneously in each rat. For evaluation of prophylactic effects of a test drug, another minipump with appropriate concentration of the test drug solution was implanted subcutaneously at a site away from PTH minipump. Alternatively, test drugs were administered by oral gavage as a solution or uniform suspension in an appropriate medium depending on the physical properties of the test compound. A group of 7 unimplanted TPTX rats was set aside as a normal control group. Twenty hours after minipump implantation blood was collected from each rat to confirm the presence of hypercalcemia (judged by elevation of serum calcium levels, 2 SD>normal non-implanted level). At various intervals between 0.5 and 24 hours after dosing (usually one to three time points), blood was collected from each rat and the serum evaluated for total calcium. Serum calcium levels were measured using the Nova 7+7 calcium auto analyzer spectrophotometrically using the Sigma test kit (#587A). Test results were determined by the difference in serum calcium between vehicle and treatment group following PTH administration, using a one-way analysis of variance with Dunnett's test or other multiple comparison methods.

Series [3] deals with T1, Vitronectin receptor αVβ3 (Homo sapiens, UniProt P05106+P06756).
T1 construct: expressed in transfected cells; host or cells: 512P5 cells (plasma membrane preparation)
Briefly: Vitronectin Receptor αVβ3 Binding Assay. As to conditions: for IC50: read-out: VnR (IC50μM).

The target in series [4] is T2, αVβ3 integrin (Homo sapiens, UniProt P05106+P06756).
T2 construct: αVβ3-expressing cell lines are maintained by standard tissue culture techniques; endogenous in cells; host or cells: αVβ3-expressing cell lines
Briefly: Osteopontin-αVβ3 Cell Attachment Assay. The format is cell-based. The method, then:
Osteopontin-αVβ3 Cell Attachment Assay The purpose of this assay is to measure the effect of various compounds on the RGD-dependent attachment of cells to osteopontin mediated by the αVβ3 integrin. […] Following the blocking period, wells are aspirated and washed once with D-PBS. Cell Suspension αVβ3-expressing cell lines are maintained by standard tissue culture techniques. […] The cells are pelleted by low-speed centrifugation and washed three times with 0.5 mg/mL trypsin inhibitor in D-PBS (Sigma). The final cell pellet is resuspended in cell suspension media at a concentration of 10^6 cells/mL. Attachment Assay Incubation: […] of diluted test compound is added to osteopontin-coated wells (in triplicate) followed by […] of cell suspension; background cell attachment is determined in uncoated wells. The plate is incubated at 25° C. in a humidified air atmosphere for 1.5 hours. Following the incubation period, the wells are gently aspirated and washed once with D-PBS. Cell Number Detection: The number of cells attached is determined by an MTT dye conversion assay (Promega) according to the manufacturer's instructions. Briefly, MTT dye is diluted in cell suspension media (15:85) and […] is added to each well. […] The assay plates are covered and incubated at 37° C. in a humidified air atmosphere overnight. […] Reference Compounds Various […]

[5] abbreviates: Rattus norvegicus, sc, 100 mg/kg.
Setting [6] is: Osteoclast Pitting Assay, neonatal rat osteoclasts on bovine cortical bone slices, read-out: IC50 (μM) Bone Pitting.
[7] abbreviates: Rattus norvegicus, po, 100 mg/kg.

T1 sequence (P06756 31-889 limits assumed): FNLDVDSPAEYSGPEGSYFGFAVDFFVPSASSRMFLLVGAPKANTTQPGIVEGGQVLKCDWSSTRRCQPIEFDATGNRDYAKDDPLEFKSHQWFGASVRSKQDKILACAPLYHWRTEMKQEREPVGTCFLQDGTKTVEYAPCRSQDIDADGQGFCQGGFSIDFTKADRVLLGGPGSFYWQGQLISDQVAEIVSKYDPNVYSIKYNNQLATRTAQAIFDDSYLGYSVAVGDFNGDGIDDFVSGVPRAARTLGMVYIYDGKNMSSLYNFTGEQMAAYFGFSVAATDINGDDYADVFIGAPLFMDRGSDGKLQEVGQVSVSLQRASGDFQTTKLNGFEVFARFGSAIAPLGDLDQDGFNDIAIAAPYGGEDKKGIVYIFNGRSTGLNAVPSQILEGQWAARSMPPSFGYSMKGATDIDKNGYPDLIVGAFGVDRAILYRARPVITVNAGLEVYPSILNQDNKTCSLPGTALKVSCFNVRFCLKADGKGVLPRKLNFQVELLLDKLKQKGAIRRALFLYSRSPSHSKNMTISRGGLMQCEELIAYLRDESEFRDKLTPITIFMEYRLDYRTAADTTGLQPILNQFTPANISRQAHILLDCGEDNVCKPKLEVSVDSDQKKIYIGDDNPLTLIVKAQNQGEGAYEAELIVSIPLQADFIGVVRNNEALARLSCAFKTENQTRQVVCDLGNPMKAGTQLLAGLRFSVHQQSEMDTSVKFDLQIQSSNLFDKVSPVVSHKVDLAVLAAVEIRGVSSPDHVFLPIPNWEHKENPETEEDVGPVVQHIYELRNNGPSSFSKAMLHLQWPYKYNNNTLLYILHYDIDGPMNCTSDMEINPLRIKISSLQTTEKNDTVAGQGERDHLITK
T1 sequence (P06756 891-1048 partner limits assumed): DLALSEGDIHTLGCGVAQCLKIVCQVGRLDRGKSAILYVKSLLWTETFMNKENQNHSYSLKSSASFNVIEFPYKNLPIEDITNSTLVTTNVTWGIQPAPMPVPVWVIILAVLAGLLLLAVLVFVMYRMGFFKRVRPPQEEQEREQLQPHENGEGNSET
T1 sequence (P05106 27-788): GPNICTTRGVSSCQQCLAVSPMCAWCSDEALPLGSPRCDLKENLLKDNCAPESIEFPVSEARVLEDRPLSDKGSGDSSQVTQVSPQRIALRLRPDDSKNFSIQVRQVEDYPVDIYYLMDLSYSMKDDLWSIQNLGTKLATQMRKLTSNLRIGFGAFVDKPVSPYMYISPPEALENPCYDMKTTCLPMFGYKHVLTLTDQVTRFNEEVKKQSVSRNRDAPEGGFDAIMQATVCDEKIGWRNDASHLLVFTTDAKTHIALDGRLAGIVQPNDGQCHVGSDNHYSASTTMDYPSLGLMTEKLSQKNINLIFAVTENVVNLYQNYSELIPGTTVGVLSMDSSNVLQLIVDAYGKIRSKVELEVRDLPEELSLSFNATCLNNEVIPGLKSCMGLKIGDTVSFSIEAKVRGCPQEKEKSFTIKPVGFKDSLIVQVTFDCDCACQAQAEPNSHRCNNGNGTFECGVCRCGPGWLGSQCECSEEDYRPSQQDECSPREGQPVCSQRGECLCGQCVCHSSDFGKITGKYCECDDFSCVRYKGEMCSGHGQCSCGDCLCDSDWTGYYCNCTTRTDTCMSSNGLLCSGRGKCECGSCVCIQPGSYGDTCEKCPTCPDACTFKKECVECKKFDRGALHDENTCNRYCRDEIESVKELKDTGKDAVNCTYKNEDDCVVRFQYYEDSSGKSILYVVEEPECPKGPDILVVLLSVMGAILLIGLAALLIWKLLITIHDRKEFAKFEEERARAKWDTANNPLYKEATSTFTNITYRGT
T2 sequence (P06756 31-889 limits assumed): as the sequence (P06756 31-889 limits assumed) above
T2 sequence (P06756 891-1048 partner limits assumed): as the sequence (P06756 891-1048 partner limits assumed) above
T2 sequence (P05106 27-788): as the sequence (P05106 27-788) above

Turning to “Calcitonin: anti-resorptive used in the clinic; rat calcitonin is the reference compound of the pitting assay (CGNLSTCMLGTYTQDLNKFHTFPQTSIGVGAP; ends and bridges not checked; cysteine pairing not given here; UniProt P01257 85-116, looked up) [reference compound]”, in series [1], the osteoclast inhibitory activity entry is on record as “significant osteoclast inhibitory activity”.
As to `CCOC(=O)CC(NC(=O)c1ccc(OCCNC2=NCCCN2)cc1O)c1ccccc1` (centres unmarked) [Example 292, 3-[2-hydroxy-4-[2-(3,4,5,6-tetrahydropyrimidin-2-ylamino)ethoxy]-benzoylamino]-3-phenyl-propanoic acid ethyl ester hydrochloride], the inhibition in vivo at 100 mg/kg in series [2] (setting [5]) was 111%. For the same compound, the IC50 in series [3] is 0.115 µM.
Regarding `O=C(NC[C@H](NS(=O)(=O)c1ccccc1)C(=O)O)c1ccc(OCCNc2ncccn2)cc1O` [Example 274], in series [2] (setting [5]), the inhibition in vivo at 100 mg/kg was 54%. Also, the results for the IC50 in series [4] and in series [1] (setting [6]) were 18 µM and 0.9 µM, respectively.
On to `CCOC(=O)[C@H](CNC(=O)c1ccc(OCCNC2=NCCCN2)cc1O)NC(=O)OCc1ccccc1` [Example 277, 2(S)-Benzyloxycarbonylamino-3-[2-hydroxy-4-[2-(3,4,5,6-tetra-hydropyrimidin-2-ylamino)ethoxy]benzoylamino]propionic acid ethyl ester hydrochloride], for which the values for the inhibition in vivo at 100 mg/kg in series [2] (setting [7]) and in series [2] (setting [5]) were 79% and 86%, respectively. Moreover, the IC50 worked out at 0.05 µM in series [4] and 0.4 µM in series [1] (setting [6]).
Turning to `CCOC(=O)[C@H](CNC(=O)c1ccc(OCCNC2=NCCCN2)cc1O)NS(=O)(=O)c1ccccc1` [Example 276, hydrochloride], the inhibition in vivo at 100 mg/kg in series [2] (setting [5]) was 170%. In addition, the IC50 in series [4] was determined as 0.12 µM; in series [1] (setting [6]), 0.15 µM.
Turning to `O=C(O)CC(NC(=O)c1ccc(OCCNC2=NCCCN2)cc1O)c1cccnc1` (centres unmarked) [Example 282, 3-[2-Hydroxy-4-[2-(3,4,5,6-tetrahydropyrimidine-2ylamino)-ethoxy]benzoylamino]-3-pyridin-3-ylpropionic acid], in series [3] (@ 100), the “VnR, % @ 100” value was −42% @ 100. Moreover, the IC50 in series [4] came out at 33 µM.
`N=C(N)NCCOc1ccc(C(=O)NC(CC(=O)O)c2ccccc2)c(O)c1` (centres unmarked) [Example 280, 3-[4-Guanidinoethoxy)-2-hydroxy-benzoylamino]-3-phenylpropanoic acid, hydrochloride]: the IC50 was determined as 12.3 µM in series [3] and 78 µM in series [4]. Further, the “IC50 (μM) Bone Pitting” value in series [1] (Osteoclast Pitting Assay, neonatal rat osteoclasts on bovine cortical bone slices) was “inactive @ 200”.
For the compound `O=C(NC[C@H](NS(=O)(=O)c1ccccc1)C(=O)O)c1ccc(OCCNC2=NCCCN2)cc1O` [Example 275, 2(S)-Benzenesulfonylamino-3-[2-hydroxy-4-[2-(3,4,5,6-tetrahydro-pyrimidin-2-ylamino)ethoxy]benzoylamino]propionic acid hydrochloride], the results for the inhibition in vivo at 100 mg/kg in series [2] (setting [7]) and in series [2] (setting [5]) were 39% and 112%, respectively. The inhibition in vivo at 30 mg/kg in series [2] (Rattus norvegicus, sc, 30 mg/kg) was 64%. In addition, the inhibition in vivo at 75 mg/kg in series [2] (Rattus norvegicus, sc, 75 mg/kg) was 105%. For the same compound, the IC50 in series [4] is 0.002 µM; in series [1] (setting [6]), 0.43 µM.
With `O=C(O)CC(NC(=O)c1ccc(OCCNC2=NCCCN2)cc1O)c1ccccc1` (centres unmarked) [Example 291, 3-[2-hydroxy-4-[2-(3,4,5,6-tetrahydropyrimidin-2-ylamino)ethoxy]-benzoylamino]-3-phenyl-propanoic acid], in series [2] (setting [5]), the inhibition in vivo at 100 mg/kg is 41%. The figures for the IC50 in series [3] and in series [4] were 0.44 µM and 28 µM, respectively.
Regarding `N=C(N)NCCOc1ccc(C(=O)NC(CC(=O)O)c2cccnc2)c(O)c1` (centres unmarked) [Example 285, 3-[4-(2-Guanidino-ethoxy)-2-hydroxybenzoyl-amino]-3-pyridin-3-yl-propanoic acid], the IC50 was determined as 5 µM in series [3] and 56 µM in series [4].
Take `O=C(N[C@@H](CNC(=O)c1ccc(OCCNc2ncccn2)cc1O)C(=O)O)OCc1ccccc1` [Example 297, 2(S)-Benzyloxycarbonylamino-3-[2-hydroxy-4-[2-(pyrimidin-2-ylamino)ethoxy]-benzoylamino]propionic acid]: the results for the IC50 in series [4] and in series [1] (setting [6]) were 50 µM and 25 µM, respectively.
On to `CCOC(=O)[C@H](CNC(=O)c1ccc(OCCNc2ncccn2)cc1O)NS(=O)(=O)c1ccccc1` [Example 273], for which the “TPTX (% inhibition)” value in series [2] (100 mg/kg, s.c.) is listed as 57%.
The compound `CCOC(=O)[C@H](CNC(=O)c1ccc(OCCNc2ncccn2)cc1O)NC(=O)OCc1ccccc1` [Example 299, 2(S)-Benzyloxycarbonylamino-3-[2-hydroxy-4-[2-(pyrimidin-2-ylamino)ethoxy]-benzoylamino]propionic acid ethyl ester hydro-chloride] yielded a melting point of 124 to 125 °C. In addition, in series [2] (setting [7]), the inhibition in vivo at 100 mg/kg was 102%. Moreover, the “IC50 (μM) Cell” value in series [4] was “inactive @ 100”. Moreover, in series [1] (setting [6]), the IC50 amounted to 1.9 µM.
For `O=C(N[C@@H](CNC(=O)c1ccc(OCCNC2=NCCCN2)cc1O)C(=O)O)OCc1ccccc1` [Example 278, 2(S)-Benzyloxycarbonylamino-3-[2-hydroxy-4-[2-(3,4,5,6-tetrahydro-pyrimidin-2-ylamino)ethoxy]benzoylamino]propionic acid hydrochloride], the IC50 is 0.02 µM in series [4] and 0.5 µM in series [1] (setting [6]).
On to `O=C(O)CC(NC(=O)c1ccc(OCCNc2ncccn2)cc1O)c1cccnc1` (centres unmarked) [Example 286, 3-[2-hydroxy-4-[2-(pyrimidin-2-ylamino)-ethoxy]benzoylamino]-3-pyridin-3-yl-propanoic acid], for which the IC50 amounted to 2.8 µM in series [3] and 86 µM in series [4].
Regarding `CCOC(=O)CC(NC(=O)c1ccc(OCCNc2ncccn2)cc1O)c1ccccc1` (centres unmarked) [Example 288, 3-[2-hydroxy-4-[2-(pyrimidin-2-ylamino)-ethoxy]benzoyl-amino]-3-phenyl-propanoic acid ethyl ester], the IC50 in series [3] was 0.003 µM; in series [1] (Rattus norvegicus, Osteoclast, read-out: bone pitting IC50) it was 0.44 µM.
As to `CCOC(=O)CC(NC(=O)c1ccc(OCCNC(=N)N)cc1O)c1ccccc1` (centres unmarked) [Example 279, 3-[4-(2-Guanidinoethoxy)-2-hydroxy-benzoylamino]-3-phenylpropanoic acid ethyl ester hydrochloride], in series [2] (setting [5]), the inhibition in vivo at 100 mg/kg is 59%. Further, the IC50 in series [3] turned out to be 0.013 µM.
